In article PMC6915728 (Nature Communications, 2019):
Like-named read-outs stand apart in the source and are kept apart here.

Tests used:
[1] = test system: E. coli BW25113 overexpression strains (ASKA plasmids); assay: Minimum inhibitory concentration (MIC), serial broth dilution, single-gene overexpression strains vs empty-vector control; format: cell-based, Escherichia coli; conditions: for Relative MIC: broth dilution, MS medium, 100 µM IPTG, 30 °C, 20-24 h, OD600, 3 replicates; for Average relative change in MIC: mlaD overexpression strain relative to control (wild-type+empty vector), 3 replicates each, from optical density values of serial dilution plates, AMP in µg ml-1
Method in brief: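 E. coli overexpression strains grown in MS medium with chloramphenicol, induced with 100 µM IPTG for 1 h at 30 °C, then about half-million cells inoculated into 12-step AMP dilutions (typically 1.2-fold steps). OD600 read after 20–24 h at 30 °C with shaking; triplicate strains compared with empty-vector control.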

[2] = test system: E. coli gene overexpression; conditions: cited from earlier work
Source text: Supplement 41467_2019_13618_MOESM1_ESM.docx, table 1: Supplementary Table 1. Collected examples of E. coli gene overexpression from the literature as a confirmation of our chemical-genetic screen results. | column: Overexpression phenotype

[3] = test system: bacterial membrane; conditions: literature mining; ref superscript numbers in the cell, listed in Supplementary Data 7 sheet References; cited from earlier work
Source text: Supplement 41467_2019_13618_MOESM10_ESM.xlsx, sheet "AMP details" | column: Pore formation

[4] = test system: E. coli K12 BW25113 carrying the pooled ASKA overexpression plasmid library (~4400 ORFs); assay: Chemical-genetic profiling: pooled competitive growth of the ASKA gene-overexpression library with and without AMP, deep sequencing readout; format: cell-based, Escherichia coli
Source text: We generated chemical-genetic interaction profiles for a diverse set of AMPs (Table 1) by screening them against a comprehensive library of gene overexpressions in E. coli[21]. Increasing gene dosage is a widely applied approach to reveal the targets of small-molecule antibiotics[22],[23]. It also informs on the ‘latent resistome’, that is, the collection of genes where a change from native expression level enhances resistance to a particular drug[24]. We applied a sensitive competition assay by monitoring growth of a pooled plasmid library, overexpressing all the E. coli ORFs (Fig. 1a), as we reported earlier. Specifically, E. coli cells carrying the pooled plasmid collection were grown in the presence or absence of one of the 15 AMPs tested, at a sub-inhibitory concentration that increased the doubling time of the whole population by 2-fold. Following 12 generations of growth, the plasmid pool was isolated from each selection and the relative abundance of each plasmid was determined by a deep sequencing readout (see Methods).
We carried out chemical-genetic profiling to determine the impact of the overexpression of each E. coli ORF on bacterial susceptibility to each of the 15 different AMPs. To this end, we used the complete set of E. coli K-12 Open Reading Frame Archive (ASKA) plasmid library (GFP minus) where each E. coli ORF is cloned into a high copy number expression plasmid (pCA24N-ORFGFP(-)). Prior to screening, the ASKA library was grown in the original host strain E. coli K-12 AG1 in 96-well plates (growth conditions: 37 °C, 280 rpm, LB medium). An equal aliquot of each member of the ASKA library (each well of the 96-well plates) was pooled together and the plasmid DNA (pCA24N-ORF-GFP(-)) was isolated and transformed into E. coli K12 BW25113 strain[51]. To obtain a negative control strain not having any overexpressed gene, the plasmid without a cloned ORF (pCA24N-noORF) was also transformed into the same E. coli strain. Then, on the pooled collection, we applied a previously reported competitive growth assay. Specifically, the pooled overexpression library and the control strain were grown in parallel in MS medium supplemented with 20 µg per ml chloramphenicol and the overexpression was induced by 100 µM isopropyl-ß-D-thiogalactopyranoside (IPTG). After 1 h induction, ~5 × 10^5 bacterial cells from the library were inoculated into each well of a 96-well microtiter plate containing a concentration gradient of an AMP in the MS medium supplemented with 20 µg per ml chloramphenicol and 100 µM IPTG. At the same time, both the library and the control strain with the empty plasmid were grown in the absence of any AMPs. We took special care to grow both of these samples in the exact same conditions as the samples in the presence of AMPs. Bacterial growth was monitored in a microplate reader (Biotek Synergy 2) for 24 h. At the end of the exponential growth phase, we selected those wells in which the doubling time of the cell population was increased by 2-fold. Then, from these wells, cells were split into four equal proportion and each was transferred into 20 mL of MS medium supplemented with the corresponding AMP in four different concentrations in the range that slowed down growth by two-fold in the microtitre plate. […] The rationale for this 2-step process was to maintain competition in exponential phase for 12 generations of growth, efficiently control the growth rate in a reproducible manner and obtain the plasmid pool with standard DNA isolation protocol (innuPREP plasmid mini Kit, Analytik Jena AG) in a yield that is enough for the downstream analysis. The cultures were vigorously shaken along the entire protocol to make sure that the cultures are completely homogeneous and therefore biasing interactions between clones (such as trans-resistance) was minimized. […]

[5] = overexpression strain gadW, MIC of overexpression strain / MIC of empty-plasmid control
[6] = overexpression strain lptB, MIC of overexpression strain / MIC of empty-plasmid control
[7] = overexpression strain mzrA, MIC of overexpression strain / MIC of empty-plasmid control
[8] = overexpression strain nikB, MIC of overexpression strain / MIC of empty-plasmid control
[9] = overexpression strain cvpA, MIC of overexpression strain / MIC of empty-plasmid control
[10] = overexpression strain mlaD, MIC of the overexpression strain / MIC of the control strain (wild-type carrying the empty plasmid)
[11] = overexpression strain uhpC, MIC of overexpression strain / MIC of empty-plasmid control
[12] = overexpression strain yhbJ, MIC of overexpression strain / MIC of empty-plasmid control
[13] = overexpression strain ytjB, MIC of overexpression strain / MIC of empty-plasmid control

Row | Sequence | Relative MIC [1, 5] | Relative MIC [1, 6] | Relative MIC [1, 7] | Relative MIC [1, 8] | Pore formation (whether AMP makes pores in the bacterial membrane) [3] | Average relative change in MIC [1] | Relative MIC [1, 9] | Relative MIC [1, 10] | Relative MIC [1, 11] | Relative MIC [1, 12] | Relative MIC [1, 13] | also measured
1 | KTKKKFLKKT [PXB, Polymyxin B, from Bacillus polymyxa, purchased from Sigma-Aldrich; disrupts cell membrane; cluster C1] | 0.7 | 0.7 | 0.66 | 1 | Yes2 | – | – | – | – | – | – | Overexpression phenotype, Literature ([2]; gene arnT overexpressed, ref 5 (Trent et al. 2001)): Resistance^5; Overexpression phenotype, Literature ([2]; gene eptA overexpressed, ref 7 (Olaitan et al. 2014)): Resistance^7; Overexpression phenotype, Literature ([2]; gene marA overexpressed, ref 3 (Warner & Levy 2010)): Resistance^3; Overexpression phenotype, Literature ([2]; gene pmrD overexpressed, ref 8 (Roland et al. 1994)): Resistance^8; Overexpression phenotype, Chemical-genetic profile ([4]; gene eptA, whether the literature phenotype was captured by the overexpression screen): Confirmed; Overexpression phenotype, Chemical-genetic profile ([4]; gene marA, whether the literature phenotype was captured by the overexpression screen): Confirmed
2 | TSSPPAAVVVRRRRRRRRRRRRRRRRRRR [PROA, Protamine, source herring, purchased from Sigma-Aldrich; cluster C3] | 0.78 | 0.51 | 0.36 | <0.71 | No43 | 0.70 | 0.78 | 0.72 | <0.61 | 0.69 | 0.8 | Relative MIC ([1]; overexpression strain ompT, MIC of overexpression strain / MIC of empty-plasmid control): >2.5; Relative MIC ([1]; overexpression strain ptsN, MIC of overexpression strain / MIC of empty-plasmid control): 1.47; Overexpression phenotype, Literature ([2]; gene nlpE overexpressed, ref 6 (Griffin 2013)): Resistance^6; Overexpression phenotype, Literature ([2]; gene ompT overexpressed, ref 4 (Stumpe et al. 1998)): Resistance^4; Overexpression phenotype, Chemical-genetic profile ([4]; gene nlpE, whether the literature phenotype was captured by the overexpression screen): Confirmed; Overexpression phenotype, Chemical-genetic profile ([4]; gene ompT, whether the literature phenotype was captured by the overexpression screen): Confirmed
3 | GLRKRLRKFRNKIKEKLKKIGQKIQGFVPKLAPRTDY [CAP18, antimicrobial peptide, source rabbit; disrupts cell membrane; cluster C3] | – | – | – | – | Yes35 | 1.86 | – | 2.42 | 1.66 | >2.25 | 1.72 | Relative MIC ([1]; overexpression strain hyfA, MIC of overexpression strain / MIC of empty-plasmid control): 0.72; Relative MIC ([1]; overexpression strain mlaC, MIC of overexpression strain / MIC of empty-plasmid control): 2.1; Relative MIC ([1]; overexpression strain murA, MIC of overexpression strain / MIC of empty-plasmid control): >2.25; Relative MIC ([1]; overexpression strain narY, MIC of overexpression strain / MIC of empty-plasmid control): 0.76; Relative MIC ([1]; overexpression strain rpoH, MIC of overexpression strain / MIC of empty-plasmid control): >2.25; Overexpression phenotype, Literature ([2]; gene waaY overexpressed, ref 10 (Lázár et al. 2018)): Sensitivity^10; Overexpression phenotype, Chemical-genetic profile ([4]; gene waaY, whether the literature phenotype was captured by the overexpression screen): Confirmed
4 | RRRPRPPYLPRPRPPPFFPPRLPPRIPPGFPPRFPPRFP [PR39, PR-39, cathelicidin, source pig; cluster C4] | 1.32 | – | 0.8 | 0.8 | No9 | – | 0.8 | – | 1.25 | – | – | Relative MIC ([1]; overexpression strain mhpA, MIC of overexpression strain / MIC of empty-plasmid control): 0.78; Overexpression phenotype, Literature ([2]; gene ptrB overexpressed, ref 2 (Mattiuzzo et al. 2014)): Resistance^2; Overexpression phenotype, Literature ([2]; gene sbmA overexpressed, ref 9 (Pranting et al. 2008)): Sensitivity^9; Effect of folA overexpression on susceptibility ([4]; gene folA (dihydrofolate reductase) overexpressed): resistance; Overexpression phenotype, Chemical-genetic profile ([4]; gene ptrB, whether the literature phenotype was captured by the overexpression screen (9 out of 13 captured)): Confirmed; Overexpression phenotype, Chemical-genetic profile ([4]; gene sbmA, whether the literature phenotype was captured by the overexpression screen): Confirmed
